Test results published in US20230212606A1, “COMPOSITIONS AND METHODS FOR TREATING KCNQ4-ASSOCIATED HEARING LOSS” (Akouos, Inc., priority 2020, published 2023).

What was measured:
KCNQ4 [1] = test: shRNA- and CRISPR-mediated knockdown of KCNQ4 expression in HEK293 cells (FIG. 3, lanes); type: cell-based, human; conditions: HEK293 cells with KCNQ4 construct, N=4 biological replicates
Description: The following shRNA constructs and KCNQ4 constructs were tested in HEK293 cells: sh395, sh909, sh1095, sh1531, sh1593, sh1677, sh1721, and sh1827 (see FIG. 3). The following constructs were tested in HEK293 cells as a positive control (e.g., as a reference for maximum knockdown of KCNQ4 that can be achieved): SaCas9+sgRNA 447Fw+KCNQ4 (lane 11). A shVEGF construct (targeting VEGF) and KCNQ4 construct were tested in HEK293 cells as a negative control (lane 10). In addition, only the KCNQ4 construct was tested in HEK293 cells as a negative control (lane 12). […] The level of expression of KCNQ4 was most reduced by sh1827 and sgRNA 447Fw in this example. FIGS. 11 and 12 each show efficacy of knockdown with each of the shRNA constructs as well as an empty shRNA construct (“Mock”). Levels of KCNQ4 were measured using quantitative PCR, normalized to GAPDH. Two independent biological replicates were performed (FIGS. 11 and 12), each of which had three replicates per condition.

KCNQ4 [2] = test: SaCas9/gRNA knockdown of KCNQ4 in HEK cells, western blot, TIDE, immunofluorescence (FIG. 10); type: cell-based, human; conditions: western blot and immunofluorescence analyses (data not shown)
Source text: The present example describes a targeting strategy that knocks out both KCNQ4 alleles and replaces wild-type KCNQ4 with a codon-optimized KCNQ4 using a SaCas9/gRNA strategy FIG. (FIG. 9). The present example also describes an in vitro analysis of KCNQ4 knockdown in HEK cells via Western blot and quantitative PCR.
The following guides were transfected with SaCas9 and KCNQ4 DNA to determine knockdown efficiency: sg233Fw (lane 2), sg386Fw (lane 3), sg408Rev (lane 4), sg447Fw(lane 5), sg482Fw (lane 6), and sg490Fw (lane 7). An untransfected control (lane 8), sgVEGF (targeting VEGF) (lane 9), and Beta-Actin expression (lanes 2-9) were used as controls. […] To expand and/or improve upon results obtained thus far, similar experiments can be performed in 3T3 cells using deadCas9 and mouse sgRNA sequences.

Row | Substance | level of expression of KCNQ4 (KCNQ4 [1]) | inhibition of KCNQ4 expression relative to other sgRNAs (KCNQ4 [2])
1 | sh1827: shRNA construct targeting KCNQ4; by order probably SEQ ID NO: 55 (GGTGGATGAAATCAGCATGATCGAAATCATGCTGATTTCATCCACC) | most reduced | 
2 | sgRNA 408Rev: gRNA targeting KCNQ4, SEQ ID NO: 43, target AAGCCGAAAACCACGATCATC (expressed or natural sequence) |  | inhibited KNCQ4 expression more than other sgRNAs
3 | sgRNA 447Fw: gRNA targeting KCNQ4, SEQ ID NO: 45, target TTTCGGCTTGGAGTACATCGT; used with SaCas9 (expressed or natural sequence) | most reduced | 
4 | sgRNA 386Fw: gRNA targeting KCNQ4, SEQ ID NO: 42, target AGGAGCACCAGGAACTTGCCA (expressed or natural sequence) |  | inhibited KNCQ4 expression more than other sgRNAs
